According to patent publication US20120196858A1, “METHOD OF PROMOTING APOPTOSIS AND INHIBITING METASTASIS” (Poniard Pharmaceuticals ,Inc., priority 2009, published 2012):

Columns and labels:
[1] = tested on: 4T1 tumors; experiment: Subcutaneous mCherry 4T1 tumor growth in BALB/c mice; format: in vivo
Description: Detection of apoptosis in tumors: Fresh tumors were snap-frozen in Optimal Cutting Temperature (OCT) compound (Tissue Tek), thin sectioned ([…]) using a cryomicrotome (Leica 3050S) and mounted onto glass slides. Sections were fixed with 3% paraformaldehyde, permeabilized in PBS containing 0.1% Triton for 3 min, and blocked with 8% goat serum in PBS for 60 min at RT. For activated caspase-3 detection, sections were incubated with cleaved caspase-3 antibody (1:200 diluted in 2% goat serum in PBS) for 18 h at 4° C., washed with PBS, and incubated with fluorescein isothiocyanate conjugated anti-rabbit and TOPRO-3 (blue) for DNA detection. Sections were imaged on a Nikon Eclipse C1 confocal microscope with a 1.4 NA 60× oil objective, with a 30 μm pinhole setting, and analyzed using EZ-C1 3.50 software (Nikon). Tumor apoptosis was also measured by terminal deoxynucleotidyl transferase dUTP nick end labeling (TUNEL) staining using the tetramethylrhodamine (TMR) kit as per the manufacturer's instructions (Roche). Bright field and fluorescent images of whole tumor sections were obtained using Zeiss M2-Bio Stereo microscope equipped with INFINITY1-3C: digital color camera and a 4× objective.
Mouse tumor studies: Six to eight week old female C57B16 and BALB/c mice were obtained from Harlan Laboratories (Indianapolis, Ind.) and housed in pathogen-free conditions, according to the guidelines of the Association for the Assessment and Accreditation for Laboratory Animal Care, International. All in vivo studies were carried out under an approved institutional experimental animal care and use protocol. Growing tumor cells were harvested by limited trypsinization, washed in PBS, and counted using a ViCell XR (Beckman) prior to injection. Cell viability as measured by trypan blue exclusion was >95%. For subcutaneous tumor growth, 1×10^6 mCherry-labeled 4T1 cells in 100 μl PBS were injected into the hindflank of Balb/C mice. […] Control animals received PEG400:PBS injections and at 13 days, tumors were imaged in situ using an Olympus OV100 Intravital Fluorescence Molecular Imaging System, tumors were excised and weighed, half was frozen in OCT, and half was solubilized in protein lysis buffer for FAK phosphorylation analyses. For ID8 ovarian carcinoma tumor growth, 0.8 mL of 1×10^7 ID8 cells in PBS was intraperitoneal injected into C57B16 mice. […] Administration continued ad libitum for 30 days after which mice were euthanized, ascites fluid collected, cells obtained by centrifugation (2000 rpm for 5 min), cell volume measured by pipet, and then solubilized in protein lysis buffer for immunoblotting analyses.

[2] = tested on: ID8 ovarian carcinoma cells; experiment: ID8 suspended spheroid cell growth; format: cell-based, murine
Description: Anchorage-dependent, spheroid, and soft agar cell growth assays: Cells (2×10^5) were plated per 35 mm well under adherent (tissue culture-treated) and non-adherent conditions (poly-HEMA-coated) in 6-well plates (Costar) in growth media. […] For spheroid area determination, cells were imaged after 72 h in phase contrast using an Olympus IX51 microscope. Area was calculated using Image J software (version 1.43). For soft agar assays, 48-well plates were coated with a 1:4 mix of 2% agar (EM Science) in 0.2 ml growth media (bottom layer). 5×10^4 cells were plated per well (in triplicate) in a mixture of 0.3% agar in 0.2 ml growth media (top layer). […] After 10 days, colonies were imaged in phase contrast, enumerated by counting 9 fields (3 fields per well), and total area determined using Image J. For all analyses, experimental points were performed in triplicate and were experiments were repeated at least two times.

[3] = tested on: 4T1 cells; experiment: Annexin V binding by flow cytometry; format: cell-based, murine; settings: 24 h
Description: Cell pellets were resuspended in 300 p. 1 of PBS containing propidium iodide (PI) (10 μg/ml), DNAse-free RNAse (100 μg/ml, Qiagen), and then incubated at 37° C. with agitation for 1 h. Samples were analyzed by flow cytometry (FACSCalibur, Becton-Dickinson) and cell cycle analyses were performed by ModFit LT3.2 software (Verity software house). Hypodiploid DNA content as a measure of cell apoptosis was detected by PI staining as described ^29. […] Quadrant gates were positioned based on cell autofluorescence (negative) staurosporine-treated (positive) controls. Apoptosis was calculated to be the percent of annexin V-positive cells. In the soft agar assays, apoptosis was quantified by visual inspection of at least 200 cells and was defined as the appearance of membrane blebbing or cell shrinkage. Apoptosis was also detected by appearance of cleaved caspase-3 antibody reactivity in protein lysates by immunoblotting.

Compound: CNC(=O)c1ccccc1Nc1cc(Nc2ccc(N3CCOCC3)cc2OC)ncc1C(F)(F)F [PND-1186]
- final tumor weight ([1]; 30 mg/kg b.i.d., 5 days): slightly reduced final tumor weight but was not significantly different
- cleaved caspase-3 staining in tumors ([1]; 100 mg/kg): elevated cleaved caspase-3 staining
- reduction of final tumor weight ([1]; 100 mg/kg b.i.d., 5 days): 2 fold
- tumor TUNEL staining ([1]; 30 and 100 mg/kg b.i.d., vs vehicle): significantly increased tumor TUNEL staining
- ID8 cell number ([2]; 0.1, 0.4, and 1.0 μM, 72 h, suspended spheroids): significantly inhibited ID8 cell number
- viable ID8 cells ([2]; after 15 days): dramatic reduction in viable cells
- annexin V positive staining, suspended cells ([3]; 0.1 to 0.4 μM): 50-60%
- annexin V-positive cells, adherent conditions ([3]; up to 1.0 μM): did not increase
